Publication PMC4141193 (FEBS Open Bio, 2014)

Legend:
[1] = target: X-linked inhibitor of apoptosis protein (XIAP) (Homo sapiens, UniProt P98170); test: competitive fluorescence polarization with ARPF-FAM probe; assay type: binding
[2] = target: ARPF-K(5-Fam)-NH2-peptide; test: fluorescence polarisation

Chain of X-linked inhibitor of apoptosis protein (XIAP) (P98170 238-359): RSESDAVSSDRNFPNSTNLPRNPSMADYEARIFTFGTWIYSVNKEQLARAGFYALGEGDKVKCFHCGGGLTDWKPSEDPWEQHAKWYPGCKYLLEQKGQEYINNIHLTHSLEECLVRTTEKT

Compound	Ki [1]	Kd [2]
CCCCCCCCCCCC1=C(O)C(=O)C=C(O)C1=O [embelin]	22.3 µM	
recombinant XIAP-BIR3 domain protein (domain or fragment)		0.145 µM
